According to ChEMBL document CHEMBL1145073, “DNA binding ligands targeting drug-resistant bacteria: structure, activity, and pharmacology” (J Med Chem, 2003):
≈ marks a conversion by molar mass, not a printed value.

Tests used:
Assay type in all cases: functional
[1] = system: Enterococcus faecalis; assay: In vitro antimicrobial activity against vancomycin-susceptible Enterococcus faecalis 29212
[2] = In vitro antimicrobial activity against penicillin-intermediate Streptococcus pneumoniae 49619
[3] = system: Staphylococcus aureus; assay: In vitro antimicrobial activity against methicillin resistant Staphylococcus aureus 27660

Row | SMILES | MIC [1] [µg/mL] | MIC [2] [µg/mL] | MIC [3] [µg/mL]
1 | Cn1cc(NC(=O)c2cc(NC(=O)c3cc(NC(=O)c4cn5cccnc5n4)cn3C)cn2C)cc1C(=O)NCCN1CCOCC1 | 8 (≈ 12.5 µM) | 0.5 (≈ 0.779 µM) | –
2 | Cn1cc(NC(=O)c2cc(NC(=O)c3cc(NC(=O)c4cc5ccccc5cn4)cn3C)cn2C)cc1C(=O)NCCCN1CCCCC1 | 4 (≈ 6.03 µM) | 0.25 (≈ 0.377 µM) | 4 (≈ 6.03 µM)
3 | Cn1cc(NC(=O)c2cc(NC(=O)c3cc(-c4sccc4O)cn3C)cn2C)cc1C(=O)NCCN1CCOCC1 | > 32 | > 32 | > 32
4 | CC(C)S(=O)(=O)c1csc(-c2cc(C(=O)Nc3cc(C(=O)Nc4cc(C(=O)NCCN5CCOCC5)n(C)c4)n(C)c3)n(C)c2)c1Cl | 4 (≈ 5.68 µM) | 1 (≈ 1.42 µM) | 4 (≈ 5.68 µM)
5 | Cn1cc(NC(=O)c2cc(NC(=O)c3cc(NC(=O)c4cc5ccccc5cn4)cn3C)cn2C)cc1C(=O)NCCN1CCNCC1 | > 32 | > 32 | 16 (≈ 24.6 µM)
6 | Cn1cc(NC(=O)c2cc(NC(=O)c3cc(NC(=O)c4cccnc4)cn3C)cn2C)cc1C(=O)NCCN1CCOCC1 | > 32 | 4 (≈ 6.65 µM) | –
7 | Cn1cc(NC(=O)c2cc(NC(=O)c3cc(NC(=O)c4cc5ccccc5n4C)cn3C)cn2C)cc1C(=O)NCCN1CCOCC1 | 32 (≈ 48.9 µM) | 8 (≈ 12.2 µM) | –
8 | Cn1cc(NC(=O)c2cc(NC(=O)c3cc(NC(=O)c4ccccn4)cn3C)cn2C)cc1C(=O)NCCN1CCOCC1 | > 32 | > 32 | –
9 | Cn1cc(NC(=O)c2cc(NC(=O)c3cc(NC(=O)c4cc5ccccc5cn4)cn3C)cn2C)cc1C(=O)NCCN1CCCCC1 | 0.062 (≈ 0.0954 µM) | 0.031 (≈ 0.0477 µM) | 0.25 (≈ 0.385 µM)
10 | Cn1cc(NC(=O)c2cc(NC(=O)c3cc(-c4ccc5nonc5c4)cn3C)cn2C)cc1C(=O)NCCN1CCOCC1 | 8 (≈ 13.3 µM) | 8 (≈ 13.3 µM) | 8 (≈ 13.3 µM)
11 | Cc1cccnc1-c1cc(C(=O)Nc2cc(C(=O)Nc3cc(C(=O)NCCN4CCOCC4)n(C)c3)n(C)c2)n(C)c1 | 8 (≈ 14 µM) | 1 (≈ 1.75 µM) | 18 (≈ 31.4 µM)
12 | Cn1cc(NC(=O)c2cc(NC(=O)c3cc(NC(=O)c4ccccc4)cn3C)cn2C)cc1C(=O)NCCN1CCOCC1 | 32 (≈ 53.3 µM) | 16 (≈ 26.6 µM) | –
13 | Cn1cc(NC(=O)c2cc(NC(=O)c3cc(NC(=O)c4cc5ccccc5cn4)cn3C)cn2C)cc1C(=O)NCCCN1CCOCC1 | 2 (≈ 3 µM) | 2 (≈ 3 µM) | 2 (≈ 3 µM)
14 | Cn1cc(NC(=O)c2cc(NC(=O)c3cc(-c4ccc(F)cc4F)cn3C)cn2C)cc1C(=O)NCCN1CCOCC1 | 1 (≈ 1.68 µM) | 0.125 (≈ 0.211 µM) | 2 (≈ 3.37 µM)
15 | Cn1cc(NC(=O)c2cc(NC(=O)c3cc(NC(=O)c4ccc(OC(F)(F)F)cc4)cn3C)cn2C)cc1C(=O)NCCN1CCOCC1 | > 32 | 1 (≈ 1.46 µM) | –
16 | Cn1cc(NC(=O)c2cc(NC(=O)c3cc(-c4cccc(Cl)c4)cn3C)cn2C)cc1C(=O)NCCN1CCOCC1 | 8 (≈ 13.5 µM) | 8 (≈ 13.5 µM) | 8 (≈ 13.5 µM)
17 | COc1ccc(C(=O)Nc2cc(C(=O)Nc3cc(C(=O)Nc4cc(C(=O)NCCN5CCOCC5)n(C)c4)n(C)c3)n(C)c2)cc1 | > 32 | 0.125 (≈ 0.198 µM) | –
18 | Cn1cc(NC(=O)c2cc(NC(=O)c3cc(NC(=O)c4cnc5ccccc5c4)cn3C)cn2C)cc1C(=O)NCCN1CCOCC1 | > 32 | 16 (≈ 24.6 µM) | –
19 | CN1CCN(CCNC(=O)c2cc(NC(=O)c3cc(NC(=O)c4cc(NC(=O)c5sccc5Cl)cn4C)cn3C)cn2C)CC1 | 32 (≈ 48.9 µM) | 2 (≈ 3.06 µM) | 4 (≈ 6.11 µM)
20 | Cn1cc(NC(=O)c2cc(NC(=O)c3cc(NC(=O)c4ccc(OC(F)F)cc4)cn3C)cn2C)cc1C(=O)NCCN1CCOCC1 | 4 (≈ 6 µM) | 0.062 (≈ 0.093 µM) | –

Row | SMILES | MIC [1] [µg/mL] | MIC [2] [µg/mL] | MIC [3] [µg/mL]
21 | Cn1cc(NC(=O)c2cc(NC(=O)c3cc(NC(=O)c4cc5ccccc5oc4=O)cn3C)cn2C)cc1C(=O)NCCN1CCOCC1 | 16 (≈ 23.9 µM) | 0.5 (≈ 0.748 µM) | –
22 | Cn1cc(NC(=O)c2cc(NC(=O)c3cc(-c4sccc4C#N)cn3C)cn2C)cc1C(=O)NCCN1CCOCC1 | 2 (≈ 3.4 µM) | 0.5 (≈ 0.849 µM) | 4 (≈ 6.79 µM)
23 | Cn1cc(NC(=O)c2cc(NC(=O)c3cc(NC(=O)c4cc5cccc(Cl)c5s4)cn3C)cn2C)cc1C(=O)NCCN1CCOCC1 | > 32 | 2 (≈ 2.89 µM) | –
24 | Cn1cc(NC(=O)c2cc(NC(=O)c3cc(NC(=O)c4cc5ccccc5s4)cn3C)cn2C)cc1C(=O)NCCN1CCOCC1 | 32 (≈ 48.7 µM) | 1 (≈ 1.52 µM) | –
25 | Cn1cc(NC(=O)c2cc(NC(=O)c3cc(NC(=O)c4sc5cc(F)c(F)cc5c4Cl)cn3C)cn2C)cc1C(=O)NCCN1CCOCC1 | 8 (≈ 11 µM) | 0.5 (≈ 0.688 µM) | –
26 | Cn1cc(NC(=O)c2cc(NC(=O)c3cc(NC(=O)c4cccn4C)cn3C)cn2C)cc1C(=O)NCCN1CCOCC1 | > 32 | 32 (≈ 53 µM) | –
27 | Cn1cc(NC(=O)c2cc(NC(=O)c3cc(NC(=O)c4ccoc4)cn3C)cn2C)cc1C(=O)NCCN1CCOCC1 | > 32 | 8 (≈ 13.5 µM) | –
28 | Cn1cc(NC(=O)c2cc(NC(=O)c3cc(-c4ccc(Cl)s4)cn3C)cn2C)cc1C(=O)NCCN1CCOCC1 | 2 (≈ 3.34 µM) | 2 (≈ 3.34 µM) | 4 (≈ 6.69 µM)
29 | CN(C)CC(C)(C)CNC(=O)c1cc(NC(=O)c2cc(NC(=O)c3cc(NC(=O)c4cc5ccccc5cn4)cn3C)cn2C)cn1C | 1 (≈ 1.53 µM) | 1 (≈ 1.53 µM) | 1 (≈ 1.53 µM)
30 | Cn1cc(NC(=O)c2cc(NC(=O)c3cc(-c4ccccc4F)cn3C)cn2C)cc1C(=O)NCCN1CCOCC1 | 0.5 (≈ 0.869 µM) | 1 (≈ 1.74 µM) | 8 (≈ 13.9 µM)
31 | Cn1cc(NC(=O)c2cc(NC(=O)c3cc(-c4ccc5nsnc5c4)cn3C)cn2C)cc1C(=O)NCCN1CCOCC1 | 1 (≈ 1.62 µM) | 0.5 (≈ 0.812 µM) | 8 (≈ 13 µM)
32 | Cn1cc(NC(=O)c2cc(NC(=O)c3cc(-c4cccc(F)c4)cn3C)cn2C)cc1C(=O)NCCN1CCOCC1 | 32 (≈ 55.6 µM) | 16 (≈ 27.8 µM) | 32 (≈ 55.6 µM)
33 | Cn1cc(NC(=O)c2cc(NC(=O)c3cc(NC(=O)c4ccc5cccnc5n4)cn3C)cn2C)cc1C(=O)NCCN1CCOCC1 | > 32 | 2 (≈ 3.06 µM) | –
34 | CN(C)CCCNC(=O)c1cc(NC(=O)c2cc(NC(=O)c3cc(NC(=O)c4cc5ccccc5cn4)cn3C)cn2C)cn1C | 4 (≈ 6.41 µM) | 1 (≈ 1.6 µM) | 4 (≈ 6.41 µM)
35 | Cn1cc(NC(=O)c2cc(NC(=O)c3cc(-c4cc5ccccc5o4)cn3C)cn2C)cc1C(=O)NCCN1CCOCC1 | 4 (≈ 6.69 µM) | 0.5 (≈ 0.837 µM) | 2 (≈ 3.35 µM)
36 | Cc1nc2ccncc2cc1C(=O)Nc1cc(C(=O)Nc2cc(C(=O)Nc3cc(C(=O)NCCN4CCOCC4)n(C)c3)n(C)c2)n(C)c1 | > 32 | > 32 | –
37 | Cn1cc(NC(=O)c2cc(NC(=O)c3cc(NC(=O)c4csc(-c5cccnc5)n4)cn3C)cn2C)cc1C(=O)NCCN1CCOCC1 | > 32 | 2 (≈ 2.92 µM) | –
38 | Cn1cc(NC(=O)c2cc(NC(=O)c3cc(NC(=O)c4sc5cc(C(F)(F)F)ccc5c4Cl)cn3C)cn2C)cc1C(=O)NCCN1CCOCC1 | 8 (≈ 10.5 µM) | 4 (≈ 5.27 µM) | –
39 | Cn1cc(NC(=O)c2cc(NC(=O)c3cc(NC(=O)c4sc5cc(Cl)sc5c4Cl)cn3C)cn2C)cc1C(=O)NCCN1CCOCC1 | 16 (≈ 21.9 µM) | 0.125 (≈ 0.171 µM) | –
40 | Cn1cc(NC(=O)c2cc(NC(=O)c3cc(NC(=O)c4ccc5c(c4)OCO5)cn3C)cn2C)cc1C(=O)NCCN1CCOCC1 | 16 (≈ 24.8 µM) | 2 (≈ 3.1 µM) | –

Row | SMILES | MIC [1] [µg/mL] | MIC [2] [µg/mL] | MIC [3] [µg/mL]
41 | Cn1cc(NC(=O)c2cc(NC(=O)c3cc(NC(=O)c4cccs4)cn3C)cn2C)cc1C(=O)NCCN1CCOCC1 | 16 (≈ 26.4 µM) | 2 (≈ 3.3 µM) | –
42 | Cc1c(-c2cc(C(=O)Nc3cc(C(=O)Nc4cc(C(=O)NCCN5CCOCC5)n(C)c4)n(C)c3)n(C)c2)oc2ccccc12 | 16 (≈ 26.2 µM) | 2 (≈ 3.27 µM) | 8 (≈ 13.1 µM)
43 | Cn1cc(NC(=O)c2cc(NC(=O)c3cc(-c4ccc5ccccc5c4)cn3C)cn2C)cc1C(=O)NCCN1CCOCC1 | 4 (≈ 6.58 µM) | 4 (≈ 6.58 µM) | 8 (≈ 13.2 µM)
44 | Cc1nnsc1-c1cc(C(=O)Nc2cc(C(=O)Nc3cc(C(=O)NCCN4CCOCC4)n(C)c3)n(C)c2)n(C)c1 | 8 (≈ 13.8 µM) | 2 (≈ 3.45 µM) | 16 (≈ 27.6 µM)
45 | Cc1ccsc1-c1cc(C(=O)Nc2cc(C(=O)Nc3cc(C(=O)NCCN4CCOCC4)n(C)c3)n(C)c2)n(C)c1 | 16 (≈ 27.7 µM) | 4 (≈ 6.92 µM) | 16 (≈ 27.7 µM)
46 | Cn1cc(NC(=O)c2cc(NC(=O)c3cc(NC(=O)c4sccc4Cl)cn3C)cn2C)cc1C(=O)NCCN1CCC(O)CC1 | 4 (≈ 6.11 µM) | 2 (≈ 3.05 µM) | 4 (≈ 6.11 µM)
47 | Cn1cc(NC(=O)c2cc(NC(=O)c3cc(NC(=O)c4cc5ccccc5cn4)cn3C)cn2C)cc1C(=O)NCCN1CCCC1 | 2 (≈ 3.15 µM) | 0.062 (≈ 0.0975 µM) | 0.5 (≈ 0.786 µM)
48 | Cn1cc(NC(=O)c2cc(NC(=O)c3cc(NC(=O)c4cnc5ccccc5n4)cn3C)cn2C)cc1C(=O)NCCN1CCOCC1 | > 32 | > 32 | –
49 | Cn1cc(NC(=O)c2cc(NC(=O)c3cc(-c4cc(Cl)c(Cl)s4)cn3C)cn2C)cc1C(=O)NCCN1CCOCC1 | 8 (≈ 12.6 µM) | 4 (≈ 6.32 µM) | 8 (≈ 12.6 µM)
50 | CSc1ccsc1-c1cc(C(=O)Nc2cc(C(=O)Nc3cc(C(=O)NCCN4CCOCC4)n(C)c3)n(C)c2)n(C)c1 | 8 (≈ 13.1 µM) | 0.125 (≈ 0.205 µM) | 4 (≈ 6.56 µM)
51 | Cn1cc(NC(=O)c2cc(NC(=O)c3cc(-c4cc5ccccc5[nH]4)cn3C)cn2C)cc1C(=O)NCCN1CCOCC1 | 8 (≈ 13.4 µM) | 2 (≈ 3.35 µM) | 8 (≈ 13.4 µM)
52 | Cn1cc(NC(=O)c2cc(NC(=O)c3cc(NC(=O)c4nsc5ccccc45)cn3C)cn2C)cc1C(=O)NCCN1CCOCC1 | 1 (≈ 1.52 µM) | 0.125 (≈ 0.19 µM) | –
53 | Cn1cc(NC(=O)c2cc(NC(=O)c3cc(NC(=O)c4cn5ccccc5n4)cn3C)cn2C)cc1C(=O)NCCN1CCOCC1 | 2 (≈ 3.12 µM) | 0.031 (≈ 0.0484 µM) | –
54 | Cn1cc(NC(=O)c2cc(NC(=O)c3cc(NC(=O)c4sc5cc(Cl)ccc5c4Cl)cn3C)cn2C)cc1C(=O)NCCN1CCOCC1 | 32 (≈ 44.1 µM) | 0.25 (≈ 0.345 µM) | –
55 | Cn1cc(NC(=O)c2cc(NC(=O)c3cc(NC(=O)c4ccc5ccccc5n4)cn3C)cn2C)cc1C(=O)NCCN1CCOCC1 | 32 (≈ 49.1 µM) | 1 (≈ 1.53 µM) | –
56 | Cn1cc(NC(=O)c2cc(NC(=O)c3cc(NC(=O)c4sc(-c5ccccc5)cc4Cl)cn3C)cn2C)cc1C(=O)NCCN1CCOCC1 | > 32 | 2 (≈ 2.79 µM) | –
57 | Cn1cc(NC(=O)c2cc(NC(=O)c3cc(NC(=O)c4ccc5cnccc5n4)cn3C)cn2C)cc1C(=O)NCCN1CCOCC1 | 4 (≈ 6.13 µM) | 0.25 (≈ 0.383 µM) | –
58 | COc1cc(Cl)ccc1C(=O)Nc1cc(C(=O)Nc2cc(C(=O)Nc3cc(C(=O)NCCN4CCOCC4)n(C)c3)n(C)c2)n(C)c1 | 8 (≈ 12 µM) | 0.5 (≈ 0.752 µM) | –
